Assay results reported in US8163724B2, “Glucocorticosteroids, processes for their preparation, pharmaceutical compositions containing them and their use in therapy” (AstraZeneca AB, priority 2007, dated 2012).
pIC50: −log10 of the molar value.

Each compound was assayed against T1, recombinant human GR (Homo sapiens, UniProt P04150) (assay: Human Glucocorticoid Receptor (GR) Assay (fluorescence polarization, Panvera/Invitrogen kit)). Conditions: fluorescence polarization; GS Red tracer; 2 hours at room temperature; 100% control 10 μM Dexamethasone; read-out: Inhibition of GR binding, IC50.
T1 construct: purchased Panvera/Invitrogen P2812 (kit P2893)
T1 sequence (P04150 1-777): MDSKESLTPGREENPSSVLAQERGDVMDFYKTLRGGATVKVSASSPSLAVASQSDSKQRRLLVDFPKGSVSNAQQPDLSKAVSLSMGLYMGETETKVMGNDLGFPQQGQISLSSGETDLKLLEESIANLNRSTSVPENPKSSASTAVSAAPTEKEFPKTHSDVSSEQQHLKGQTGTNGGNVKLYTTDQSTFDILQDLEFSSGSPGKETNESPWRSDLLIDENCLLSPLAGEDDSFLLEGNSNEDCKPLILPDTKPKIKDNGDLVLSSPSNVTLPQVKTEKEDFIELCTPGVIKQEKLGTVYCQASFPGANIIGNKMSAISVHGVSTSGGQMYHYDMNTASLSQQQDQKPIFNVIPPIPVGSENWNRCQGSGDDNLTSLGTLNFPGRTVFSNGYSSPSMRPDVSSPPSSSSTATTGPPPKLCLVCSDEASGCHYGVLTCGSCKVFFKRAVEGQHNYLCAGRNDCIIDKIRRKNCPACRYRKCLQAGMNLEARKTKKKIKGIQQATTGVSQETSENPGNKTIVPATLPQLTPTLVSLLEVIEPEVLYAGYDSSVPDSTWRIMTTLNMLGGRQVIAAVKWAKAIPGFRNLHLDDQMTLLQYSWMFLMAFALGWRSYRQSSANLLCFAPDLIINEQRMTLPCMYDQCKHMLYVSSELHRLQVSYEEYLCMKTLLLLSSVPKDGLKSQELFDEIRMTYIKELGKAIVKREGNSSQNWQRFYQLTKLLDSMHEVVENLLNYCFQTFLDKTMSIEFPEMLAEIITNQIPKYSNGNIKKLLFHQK
Assay type: binding
Method in brief: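 Fluorescence polarization competition with recombinant GR and GS Red fluorescent ligand plus stabilizing peptide and DTT in potassium phosphate/sodium molybdate/EDTA buffer with DMSO. Incubated 2 hours at room temperature in the dark; 0% control DMSO, 100% control 10 μM dexamethasone.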
For CC(=O)O[C@]1(C(=O)SCC#N)CC[C@H]2[C@@H]3CCC4=Cc5c(cnn5-c5ccc(F)cc5)C[C@]4(C)[C@H]3[C@@H](O)C[C@@]21C [Example 109, (1R,3aS,3bS,10aR,10bS,11S,12aS)-1-{[(Cyanomethyl)sulfanyl]carbonyl}-7-(4-fluorophenyl)-11-hydroxy-10a,12a-dimethyl-1,2,3,3a,3b,4,5,7,10,10a,10b,11,12,12a-tetradecahydrocyclopenta[5,6]naphtho[1,2-f]indazol-1-yl acetate], the pIC50 was 8.39.
Work on CC(=O)O[C@]1(C(=O)SCF)CC[C@H]2[C@@H]3CCC4=Cc5c(cnn5-c5ccc(F)cc5)C[C@]4(C)[C@H]3[C@@H](O)C[C@@]21C [Example 110, (1R,3aS,3bS,10aR,10bS,11S,12aS)-1-{[(Fluoromethyl)sulfanyl]carbonyl}-7-(4-fluorophenyl)-11-hydroxy-10a,12a-dimethyl-1,2,3,3a,3b,4,5,7,10,10a,10b,11,12,12a-tetradecahydrocyclopenta[5,6]naphtho[1,2-f]indazol-1-yl acetate] yielded a pIC50 of 8.17.
Work on CC(C)C(=O)O[C@]1(C(=O)SCC#N)CC[C@H]2[C@@H]3CCC4=Cc5c(cnn5-c5ccc(F)cc5)C[C@]4(C)[C@H]3[C@@H](O)C[C@@]21C [Example 111, (1R,3aS,3bS,10aR,10bS,11S,12aS)-1-{[(Cyanomethyl)sulfanyl]carbonyl}-7-(4-fluorophenyl)-11-hydroxy-10a,12a-dimethyl-1,2,3,3a,3b,4,5,7,10,10a,10b,11,12,12a-tetradecahydrocyclopenta[5,6]naphtho[1,2-f]indazol-1-yl 2-methylpropanoate] yielded a pIC50 of 8.20.
CC(C)CC(=O)O[C@]1(C(=O)SCC#N)CC[C@H]2[C@@H]3CCC4=Cc5c(cnn5-c5ccc(F)cc5)C[C@]4(C)[C@H]3[C@@H](O)C[C@@]21C [Example 112, (1R,3aS,3bS,10aR,10bS,11S,12aS)-1-{[(Cyanomethyl)sulfanyl]carbonyl}-7-(4-fluorophenyl)-11-hydroxy-10a,12a-dimethyl-1,2,3,3a,3b,4,5,7,10,10a,10b,11,12,12a-tetradecahydrocyclopenta[5,6]naphtho[1,2-f]indazol-1-yl 3-methylbutanoate] gave a pIC50 of 7.74.
C[C@]12Cc3cnn(-c4ccc(F)cc4)c3C=C1CC[C@@H]1[C@@H]2[C@@H](O)C[C@@]2(C)[C@H]1CC[C@]2(OC(=O)C1CCC1)C(=O)SCC#N [Example 113, (1R,3aS,3bS,10aR,10bS,11S,12aS)-1-{[(Cyanomethyl)sulfanyl]carbonyl}-7-(4-fluorophenyl)-11-hydroxy-10a,12a-dimethyl-1,2,3,3a,3b,4,5,7,10,10a,10b,11,12,12a-tetradecahydrocyclopenta[5,6]naphtho[1,2-f]indazol-1-yl cyclobutanecarboxylate] was tested, and the pIC50 was 7.96.
In the case of C[C@]12Cc3cnn(-c4ccc(F)cc4)c3C=C1CC[C@@H]1[C@@H]2[C@@H](O)C[C@@]2(C)[C@H]1CC[C@]2(OC(=O)CC1CCCC1)C(=O)SCC#N [Example 114, (1R,3aS,3bS,10aR,10bS,11S,12aS)-1-{[(Cyanomethyl)sulfanyl]carbonyl}-7-(4-fluorophenyl)-11-hydroxy-10a,12a-dimethyl-1,2,3,3a,3b,4,5,7,10,10a,10b,11,12,12a-tetradecahydrocyclopenta[5,6]naphtho[1,2-f]indazol-1-yl cyclopentylacetate], the pIC50 was 7.80.
Work on C[C@]12Cc3cnn(-c4ccc(F)cc4)c3C=C1CC[C@@H]1[C@@H]2[C@@H](O)C[C@@]2(C)[C@H]1CC[C@]2(OC(=O)c1cccs1)C(=O)SCC#N [Example 115, (1R,3aS,3bS,10aR,10bS,11S,12aS)-1-{[(Cyanomethyl)sulfanyl]carbonyl}-7-(4-fluorophenyl)-11-hydroxy-10a,12a-dimethyl-1,2,3,3a,3b,4,5,7,10,10a,10b,11,12,12a-tetradecahydrocyclopenta[5,6]naphtho[1,2-f]indazol-1-yl thiophene-2-carboxylate] yielded a pIC50 of 8.00.
Cc1cc(C(=O)O[C@]2(C(=O)SCC#N)CC[C@H]3[C@@H]4CCC5=Cc6c(cnn6-c6ccc(F)cc6)C[C@]5(C)[C@H]4[C@@H](O)C[C@@]32C)no1 [Example 116, (1R,3aS,3bS,10aR,10bS,11S,12aS)-1-{[(Cyanomethyl)sulfanyl]carbonyl}-7-(4-fluorophenyl)-11-hydroxy-10a,12a-dimethyl-1,2,3,3a,3b,4,5,7,10,10a,10b,11,12,12a-tetradecahydrocyclopenta[5,6]naphtho[1,2-f]indazol-1-yl 5-methylisoxazole-3-carboxylate] showed a pIC50 of 8.16.
Compound CSCOC(=O)[C@@]1(O)CC[C@H]2[C@@H]3CCC4=Cc5c(cnn5-c5ccc(F)cc5)C[C@]4(C)[C@H]3[C@@H](O)C[C@@]21C [Example 117, (Methylsulfanyl)methyl(1R,3aS,3bS,10aR,10bS,11S,12aS)-7-(4-fluorophenyl)-1,11-dihydroxy-10a,12a-dimethyl-1,2,3,3a,3b,4,5,7,10,10a,10b,11,12,12a-tetradecahydrocyclopenta[5,6]naphtho[1,2-f]indazole-1-carboxylate] has a pIC50 of 8.15.
CSCSC(=O)[C@@]1(OC(C)=O)CC[C@H]2[C@@H]3CCC4=Cc5c(cnn5-c5ccc(F)cc5)C[C@]4(C)[C@H]3[C@@H](O)C[C@@]21C [Example 118, (1R,3aS,3bS,10aR,10bS,11S,12aS)-7-(4-Fluorophenyl)-11-hydroxy-10a,12a-dimethyl-1-({[(methylsulfanyl)methyl]sulfanyl}carbonyl)-1,2,3,3a,3b,4,5,7,10,10a,10b,11,12,12a-tetradecahydrocyclopenta[5,6]naphtho[1,2-f]indazol-1-yl acetate] gave a pIC50 of 7.74.
For CSCOC(=O)[C@@]1(OC(C)=O)CC[C@H]2[C@@H]3CCC4=Cc5c(cnn5-c5ccc(F)cc5)C[C@]4(C)[C@H]3[C@@H](O)C[C@@]21C [Example 119, (Methylsulfanyl)methyl(1R,3aS,3bS,10aR,10bS,11S,12aS)-1-(acetyloxy)-7-(4-fluorophenyl)-11-hydroxy-10a,12a-dimethyl-1,2,3,3a,3b,4,5,7,10,10a,10b,11,12,12a-tetradecahydrocyclopenta[5,6]naphtho[1,2-f]indazole-1-carboxylate], the pIC50 was 8.34.
Work on CSCOC(=O)[C@@]1(OCSC)CC[C@H]2[C@@H]3CCC4=Cc5c(cnn5-c5ccc(F)cc5)C[C@]4(C)[C@H]3[C@@H](O)C[C@@]21C [Example 120, (Methylsulfanyl)methyl(1R,3aS,3bS,10aR,10bS,11S,12aS)-7-(4-fluorophenyl)-11-hydroxy-10a,12a-dimethyl-1-[(methylsulfanyl)methoxy]-1,2,3,3a,3b,4,5,7,10,10a,10b,11,12,12a-tetradecahydrocyclopenta[5,6]naphtho[1,2-f]indazole-1-carboxylate] yielded a pIC50 of 8.15.
With CCSC(=O)COC(=O)[C@@]1(OC(C)=O)CC[C@H]2[C@@H]3CCC4=Cc5c(cnn5-c5ccc(F)cc5)C[C@]4(C)[C@H]3[C@@H](O)C[C@@]21C [Example 121, 2-(Ethylsulfanyl)-2-oxoethyl(1R,3aS,3bS,10aR,10bS,11S,12aS)-1-(acetyloxy)-7-(4-fluorophenyl)-11-hydroxy-10a,12a-dimethyl-1,2,3,3a,3b,4,5,7,10,10a,10b,11,12,12a-tetradecahydrocyclopenta[5,6]naphtho[1,2-f]indazole-1-carboxylate] the pIC50 was 8.18.
CC(=O)O[C@]1(C(=O)CO)CC[C@H]2[C@@H]3CCC4=Cc5c(cnn5-c5ccc(F)cc5)C[C@]4(C)[C@H]3[C@@H](O)C[C@@]21C [Example 122, (1R,3aS,3bS,10aR,10bS,11S,12aS)-7-(4-Fluorophenyl)-11-hydroxy-1-(hydroxyacetyl)-10a,12a-dimethyl-1,2,3,3a,3b,4,5,7,10,10a,10b,11,12,12a-tetradecahydrocyclopenta[5,6]naphtho[1,2-f]indazol-1-yl acetate] gave a pIC50 of 8.89.
CC(=O)O[C@]1(C(=O)CSC(C)=O)CC[C@H]2[C@@H]3CCC4=Cc5c(cnn5-c5ccc(F)cc5)C[C@]4(C)[C@H]3[C@@H](O)C[C@@]21C [Example 123, (1R,3aS,3bS,10aR,10bS,11S,12aS)-1-[(Acetylsulfanyl)acetyl]-7-(4-fluorophenyl)-11-hydroxy-10a,12a-dimethyl-1,2,3,3a,3b,4,5,7,10,10a,10b,11,12,12a-tetradecahydrocyclopenta[5,6]naphtho[1,2-f]indazol-1-yl acetate] showed a pIC50 of 8.27.
